Test system: PAI-1
Assay: 35S-methionine radiolabelling for the synthesis of PAI-1 in chondrocytes (SDS-PAGE, fluorography)
Format: cell-based, bovine
Details: 24 hours; Piasclédine 300 10 μg/ml or TGF-β1 1 ng/ml; cell+matrix fraction
Method: The chondrocytes are isolated from calf cartilages as described in the article by Benya et al. (“The progeny of articular chondrocytes synthesize collagen types I and II trimer, but not type II. Verification by cyanogen bromide peptide analysis”, Biochemistry 1977; 16: 865-872). Primary cultures of chondrocytes are used in order to minimize the phenotypic changes. The cultures are plated at the rate of 6.0×10^6 cells per 175-cm^2 dish (for the extraction of RNA), at the rate of 5.0×10^6 cells per well in 6-well plates (9.6 cm^2) (for the labelling of PAI-1) and at the rate of 1.2×10^6 cells in 100-mm Petri dishes (transfection). […]
The confluent cultures in 6-well plates (9.6 cm^2) are labelled with [^35S]methionine (40 μCi/nil, Arnersham, France) in the presence of Piasclédine 300® (10 μg/nil) and TGF-β1 (1 ng/ml) for 24 hours. […] The band at 46 kD is determined to correspond to PAI-1 by previous immunoblotting using a rabbit polyclonal anti-PAI-1 antibody (Dako, Copenhagen, Denmark) as described in the article by Laiho M et al., reference cited above.
It was observed that the medium contained only minor quantities of newly-synthesized PAI-1. […]

## TGF-β1: transforming growth factor β1 protein, 1 ng/ml, marketed by R & D Systems, used as positive control
  PAI-1 fraction (synthesis of PAI-1) versus control cultures: significantly greater

— patent US7744933B2, “Use of unsaponifiable components of vegetable oils for preparing a cosmetic and related treatments” (Laboratories Expanscience, priority 1998, dated 2010)
